Source: US20160297830A1, “NOVEL COMPOUNDS USEFUL FOR THE TREATMENT OF BACTERIAL INFECTIOUS DISEASES” (GALAPAGOS NV, priority 2013, published 2016)
≈ marks a conversion by molar mass, not a printed value.

system: H. influenza Hi4 efflux pump KO; assay: Antibacterial activity assay (MIC), H. influenza Hi4; format: cell-based

For `COC[C@@H]1[C@@H](O)[C@@H]2[C@H]3C=C[C@@H]4[C@@H](COC)C(=O)O[C@H]([C@H](O)COC)[C@H](C)/C=C(\C)[C@@]24O[C@H]3[C@@H]1OC(=O)c1cc[nH]n1` [Compound 10, 8-O-1H-Pyrazole-3′-carbonylbranimycin], which MIC is on record?
The MIC was 32 µg/mL (≈ 55.5 µM).

With `COC[C@@H]1[C@@H](O)[C@@H]2[C@H]3C=C[C@@H]4[C@@H](COC)C(=O)O[C@H]([C@H](O)COC)[C@H](C)/C=C(\C)[C@@]24O[C@H]3[C@@H]1OC(=O)c1ccoc1C` [Compound 11, 8-O-2-Methylfurane-3′-carbonylbranimycin] as the molecule, how does the MIC read?
Its MIC is 32 µg/mL (≈ 54.2 µM).

For `COC[C@@H]1[C@@H](O)[C@@H]2[C@H]3C=C[C@@H]4[C@@H](COC)C(=O)O[C@H]([C@H](O)COC)[C@H](C)/C=C(\C)[C@@]24O[C@H]3[C@@H]1OC(=O)c1cc(F)c(F)[nH]1` [Compound 38, 8-O-4,5-Difluoro-1H-pyrrole-2′-carbonylbranimycin], which MIC is on record?
The MIC was 16 µg/mL (≈ 26.2 µM).

For `COC[C@H]1[C@@H](O)[C@@H]2O[C@@]34/C(C)=C/[C@@H](C)[C@@H]([C@H](O)COC)OC(=O)[C@H](COC)[C@H]3CC[C@@H]2[C@H]4[C@@H]1O` [Compound 15, 4,5-Dihydro-branimycin], which MIC is on record?
Its MIC is 64 µg/mL (≈ 132 µM).

`COC[C@@H]1[C@@H](O)[C@@H]2[C@H]3C=C[C@@H]4[C@@H](COC)C(=O)O[C@H]([C@H](O)COC)[C@H](C)/C=C(\C)[C@@]24O[C@H]3[C@@H]1OC(=O)c1ccc[nH]1` [Compound 2, 8-O-1H-pyrrole-2′-carbonylbranimycin] was tested. Which MIC did it give?
Its MIC is 4 µg/mL (≈ 6.95 µM).

With “8-O-5-Bromo-4-Chloro-1H-pyrrole-2′-carbonylbranimycin [Compound 33]” as the molecule, how does the “MIC Hi4 efflux pump KO” value read?
Its value is 16 µg/mL.

Which “MIC Hi4 efflux pump KO” value does the source give for “8-O-4-Bromo-5-Chloro-1H-pyrrole-2′-carbonylbranimycin [Compound 35]” here?
The value was 16 µg/mL.

With `COCC(=NOC(C)=O)[C@H]1OC(=O)[C@H](COC)[C@H]2C=C[C@H]3[C@H]4O[C@]2(/C(C)=C/[C@H]1C)[C@@H]3[C@H](O)[C@@H](COC)[C@H]4OC(=O)c1cc(Cl)c[nH]1` [Compound 42, 18-Acetylimino-18-deoxy-8-O-4-Chloro-1H-pyrrole-2′-carbonylbranimycin] as the molecule, how does the MIC read?
The MIC was 4 µg/mL (≈ 6.01 µM).

Which MIC does the source give for `COC[C@@H]1[C@@H](O)[C@@H]2[C@H]3C=C[C@@H]4[C@@H](COC)C(=O)O[C@H]([C@H](O)COC)[C@H](C)/C=C(\C)[C@@]24O[C@H]3[C@@H]1OC(=O)c1cc(Br)c(Br)[nH]1` [Compound 34, 8-O-4,5-Dibromo-1H-pyrrole-2′-carbonylbranimycin] here?
The MIC was 8 µg/mL (≈ 10.9 µM).

For `COC[C@@H]1[C@@H](O)[C@@H]2[C@H]3C=C[C@@H]4[C@@H](COC)C(=O)O[C@H](C(C)(O)COC)[C@H](C)/C=C(\C)[C@@]24O[C@H]3[C@@H]1OC(=O)c1ccc[nH]1` (some centres unmarked) [Compound 24, 17-Methyl-8-O-1H-pyrrole-2′-carbonylbranimycin], which MIC is on record?
The MIC was 8 µg/mL (≈ 13.6 µM).

For `COC[C@@H]1[C@@H](O)[C@@H]2[C@H]3C=C[C@@H]4C[C@H](O)C(=O)O[C@H]([C@H](O)COC)[C@H](C)/C=C(\C)[C@@]24O[C@H]3[C@@H]1OC(=O)c1ccc[nH]1` [Nargenicin B1, reference compound], which MIC is on record?
Its MIC is 8 µg/mL (≈ 14.2 µM).

With `COC[C@@H]1[C@@H](O)[C@@H]2[C@H]3C=C[C@@H]4[C@@H](COC)C(=O)O[C@H]([C@H](O)COC)[C@H](C)/C=C(\C)[C@@]24O[C@H]3[C@@H]1OC(=O)c1cc(Br)c(Br)o1` [Compound 36, 8-O-4,5-Dibromofurane-2′-carbonylbranimycin] as the molecule, how does the MIC read?
The MIC was 32 µg/mL (≈ 43.6 µM).

Which MIC does the source give for `COC[C@@H]1[C@@H](O)[C@@H]2[C@H]3C=C[C@@H]4[C@@H](COC)C(=O)O[C@H]([C@H](O)COC)[C@H](C)/C=C(\C)[C@@]24O[C@H]3[C@@H]1OC(=O)c1cc(C)c[nH]1` [Compound 12, 8-O-4-Methyl-1H-pyrrole-2′-carbonylbranimycin] here?
Its MIC is 4 µg/mL (≈ 6.78 µM).

How did the MIC turn out when `COC[C@@H](O)[C@H]1OC(=O)[C@H](COC)[C@H]2C=C[C@H]3[C@H]4O[C@]2(/C(C)=C/[C@H]1C)[C@@H]3[C@H](O)[C@@H](C)[C@H]4OC(=O)c1cc(F)c[nH]1` [Compound 23, 8-O-4-Fluoro-1H-pyrrole-2′-carbonylbaleomycin] was run?
Its MIC is 0.5 µg/mL (≈ 0.887 µM).

For `CO[C@H]1C[C@H]2C=C[C@H]3[C@H]4O[C@]2(/C(C)=C/[C@@H](C)[C@@H]([C@@H](C)O)OC1=O)[C@@H]3[C@H](O)[C@@H](C)[C@H]4O` [Nodusmicin, reference compound], which MIC is on record?
Its MIC is 2 µg/mL (≈ 4.73 µM).

With `COC[C@H]1[C@@H](O)[C@@H]2O[C@@]34/C(C)=C/[C@@H](C)[C@@H]([C@H](O)COC)OC(=O)[C@H](COC)[C@H]3C=C[C@@H]2[C@H]4[C@@H]1O` [Branimycin, reference compound] as the molecule, how does the MIC read?
Its MIC is 4 µg/mL (≈ 8.29 µM).

How did the MIC turn out when `COCC(=NOC(C)=O)[C@H]1OC(=O)[C@H](COC)[C@H]2C=C[C@H]3[C@H]4O[C@]2(/C(C)=C/[C@H]1C)[C@@H]3[C@H](O)[C@@H](COC)[C@H]4OC(=O)c1ccc[nH]1` [Compound 29, 18-Acetylimino-18-deoxy-8-O-1H-pyrrole-2′-carbonylbranimycin] was run?
The MIC was 2 µg/mL (≈ 3.17 µM).

With `CO[C@H]1C[C@H]2C=C[C@H]3[C@H]4O[C@]2(/C(C)=C/[C@@H](C)[C@@H]([C@@H](C)O)OC1=O)[C@@H]3[C@H](O)[C@@H](C)[C@H]4OC(=O)c1ccc[nH]1` [Nargenicin A1, reference compound] as the molecule, how does the MIC read?
Its MIC is 0.5 µg/mL (≈ 0.97 µM).

`COC[C@@H]1[C@@H](O)[C@@H]2[C@H]3C=C[C@@H]4[C@@H](COC)C(=O)O[C@H]([C@H](O)COC)[C@H](C)/C=C(\C)[C@@]24O[C@H]3[C@@H]1OC(=O)c1cc(Br)c(F)[nH]1` [Compound 37, 8-O-4-Bromo-5-Fluoro-1H-pyrrole-2′-carbonylbranimycin] was tested. Which MIC did it give?
Its MIC is 16 µg/mL (≈ 23.8 µM).

`COC[C@@H](O)[C@H]1OC(=O)[C@H](COC)[C@H]2C=C[C@H]3[C@H]4O[C@]2(/C(C)=C/[C@H]1C)[C@@H]3[C@H](O)[C@@H](C)[C@H]4OC(=O)c1ccoc1` [Compound 7, 8-O-Furane-3′-carbonylbaleomycin] was tested. Which MIC did it give?
Its MIC is 0.5 µg/mL (≈ 0.915 µM).

With `COCC[C@H]1OC(=O)[C@H](COC)[C@H]2C=C[C@H]3[C@H]4O[C@]2(/C(C)=C/[C@H]1C)[C@@H]3[C@H](O)[C@@H](COC)[C@H]4OC(=O)c1ccc[nH]1` [Compound 4, 17-Deoxy-8-O-1H-pyrrole-2′-carbonylbranimycin] as the molecule, how does the MIC read?
Its MIC is 16 µg/mL (≈ 28.6 µM).

With `COC[C@@H]1[C@@H](O)[C@@H]2[C@H]3C=C[C@@H]4[C@@H](COC)C(=O)O[C@H]([C@H](O)COC)[C@H](C)/C=C(\C)[C@@]24O[C@H]3[C@@H]1OC(=O)c1cc(Br)c[nH]1` [Compound 32, 8-O-4-Bromo-1H-pyrrole-2′-carbonylbranimycin] as the molecule, how does the MIC read?
Its MIC is 4 µg/mL (≈ 6.11 µM).

`COCC(=O)[C@H]1OC(=O)[C@H](COC)[C@H]2C=C[C@H]3[C@H]4O[C@]2(/C(C)=C/[C@H]1C)[C@@H]3[C@H](O)[C@@H](COC)[C@H]4OC(=O)c1ccc[nH]1` [Compound 20, 18-Deoxy-18-oxo-8-O-1H-pyrrole-2′-carbonylbranimycin] was tested. Which MIC did it give?
Its MIC is 32 µg/mL (≈ 55.8 µM).

`COC[C@@H]1[C@@H](O)[C@@H]2[C@H]3CC[C@@H]4[C@@H](COC)C(=O)O[C@H]([C@H](O)COC)[C@H](C)/C=C(\C)[C@@]24O[C@H]3[C@@H]1OC(=O)c1ccc[nH]1` [Compound 16, 4,5-Dihydro-8-O-1H-pyrrole-2′-carbonylbranimycin] was tested. Which MIC did it give?
The MIC was 16 µg/mL (≈ 27.7 µM).

`COC[C@@H]1[C@@H](O)[C@@H]2[C@H]3C=C[C@@H]4[C@@H](COC)C(=O)O[C@H]([C@H](O)COC)[C@H](C)/C=C(\C)[C@@]24O[C@H]3[C@@H]1OC(=O)c1cocn1` [Compound 8, 8-O-Oxazole-4′-carbonylbranimycin] was tested. Which MIC did it give?
The MIC was > 64 µg/mL.

With `COC[C@@H]1[C@@H](O)[C@@H]2[C@H]3C=C[C@@H]4[C@@H](COC)C(=O)O[C@H]([C@H](O)COC)[C@H](C)/C=C(\C)[C@@]24O[C@H]3[C@@H]1OC(=O)c1cc(Cl)c[nH]1` [Compound 28, 8-O-4-Chloro-1H-pyrrole-2′-carbonylbranimycin] as the molecule, how does the MIC read?
The MIC was 4 µg/mL (≈ 6.56 µM).

Which MIC does the source give for `COC[C@@H]1[C@@H](O)[C@@H]2[C@H]3C=C[C@@H]4[C@@H](COC)C(=O)O[C@H]([C@H](O)COC)[C@H](C)/C=C(\C)[C@@]24O[C@H]3[C@@H]1OC(=O)c1ccsc1` [Compound 9, 8-O-Thiophene-3′-carbonylbranimycin] here?
The MIC was 16 µg/mL (≈ 27 µM).

`COC[C@@H]1[C@@H](O)[C@@H]2[C@H]3C=C[C@@H]4[C@@H](COC)C(=O)O[C@H]([C@H](O)COC)[C@H](C)/C=C(\C)[C@@]24O[C@H]3[C@@H]1OC(=O)c1cnco1` [Compound 14, 8-O-Oxazole-5′ carbonylbranimycin] was tested. Which MIC did it give?
Its MIC is 64 µg/mL (≈ 111 µM).

How did the MIC turn out when `COC[C@@H](O)[C@H]1OC(=O)[C@H](COC)[C@H]2C=C[C@H]3[C@H]4O[C@]2(/C(C)=C/[C@H]1C)[C@@H]3[C@H](O)[C@@H](C)[C@H]4O` [Compound 1, Baleomycin] was run?
The MIC was 2 µg/mL (≈ 4.42 µM).

`COC[C@@H]1[C@@H](O)[C@@H]2[C@H]3C=C[C@@H]4[C@@H](COC)C(=O)O[C@H]([C@H](O)COC)[C@H](C)/C=C(\C)[C@@]24O[C@H]3[C@@H]1OC(=O)c1cc(F)c[nH]1` [Compound 19, 8-O-4-Fluoro-1H-pyrrole-2′-carbonylbranimycin] was tested. Which MIC did it give?
The MIC was 0.25 µg/mL (≈ 0.421 µM).

With `COC[C@@H]1[C@@H](O)[C@@H]2[C@H]3C=C[C@@H]4[C@@H](COC)C(=O)O[C@H]([C@H](O)COC)[C@H](C)/C=C(\C)[C@@]24O[C@H]3[C@@H]1OC(=O)c1ccoc1` [Compound 5, 8-O-Furane-3′-carbonylbranimycin] as the molecule, how does the MIC read?
Its MIC is 8 µg/mL (≈ 13.9 µM).

For `COC[C@@H]1[C@@H](O)[C@@H]2[C@H]3C=C[C@@H]4[C@@H](COC)C(=O)O[C@H]([C@H](O)COC)[C@H](C)/C=C(\C)[C@@]24O[C@H]3[C@@H]1OC(=O)c1ccon1` [Compound 13, 8-O-Isoxazole-3′-carbonylbranimycin], which MIC is on record?
Its MIC is 16 µg/mL (≈ 27.7 µM).

For `COC[C@@H]1[C@@H](O)[C@@H]2[C@H]3C=C[C@@H]4[C@@H](COC)C(=O)O[C@H]([C@H](O)COC)[C@H](C)/C=C(\C)[C@@]24O[C@H]3[C@@H]1OC(=O)c1ccc(C)[nH]1` [Compound 6, 8-O-5-Methyl-1H-pyrrole-2′-carbonylbranimycin], which MIC is on record?
The MIC was 32 µg/mL (≈ 54.3 µM).

How did the MIC turn out when `COCC(=NO)[C@H]1OC(=O)[C@H](COC)[C@H]2C=C[C@H]3[C@H]4O[C@]2(/C(C)=C/[C@H]1C)[C@@H]3[C@H](O)[C@@H](COC)[C@H]4OC(=O)c1ccc[nH]1` [Compound 25, 18-Deoxy-18-oximino-8-O-1H-pyrrole-2′-carbonylbranimycin] was run?
The MIC was 1 µg/mL (≈ 1.7 µM).

`COC[C@@H]1[C@@H](O)[C@@H]2[C@H]3C=C[C@@H]4[C@@H](COC)C(=O)O[C@H]([C@@H](COC)OC)[C@H](C)/C=C(\C)[C@@]24O[C@H]3[C@@H]1OC(=O)c1ccc[nH]1` [Compound 18, 17-O-Methyl-8-O-1H-pyrrole-2′-carbonylbranimycin] was tested. Which MIC did it give?
Its MIC is 4 µg/mL (≈ 6.78 µM).
